Assays:
DMS273 cells = assay: FACS cell cycle distribution (Acridine Orange), DMS273 cells; type: cell-based; settings: FBS+ media, 24 hours
From the text: (§1) The following cell lines were obtained from ATCC and cultured according to the ATCC recommendations: DMS273—small cell lung cancer cell line; H1975—non-small cell lung cancer cell line harboring L858R and T790M mutations in EGFR TK; A549—a non-small cell lung cancer cell line with wild type EGFR; LNCap—prostate cancer cell line; SW620—colon cancer cell line; MiaPaCa2—pancreatic cancer cell line; PANC1—pancreatic cancer cell line; OVCAR3—ovarian cancer cell line; SK-OV-3—ovarian cancer cell line.
(§2) Cell cultures were seeded into 6-well plates at 3×10^5-6×10^5 cells/well; the plated number of cells depended on cell size and rate of proliferation, aiming for approximately 50% confluency. After seeding, the cells were allowed to attach for 24 hours while incubated at 37° C. in a humidified 5% CO2 atmosphere, and then treated with compounds for desired amount of time (usually 24 hours) incubating under same conditions. Then the cells were harvested by trypsinization, pooled with the floating cells, washed in PBS, and fixed in 70% ice-cold ethanol overnight. For Acridine Orange (AO) staining, fixed cells were washed once with ice-cold PBS, re-suspended in 100 μL PBS, followed by addition of 200 μL of permeabilizing solution and 600 μL AO staining solution. The measurements were performed with Guava easyCyte HT flow cytometer (EMD Millipore) using the blue laser for excitation at 488 nm, monitoring emission of the AO-DNA complex at 526 nm and AO-RNA complex at 650 nm. The complete protocol and composition of buffers are described in the literature (Darzynkiewicz Z, Juan G, and Srour E F (2004) Differential Staining of DNA and RNA (2004). Current Protocols in Cytometry, Chapter 7:Unit 7.3).

SW620 cells [1] = assay: FACS cell cycle distribution (Acridine Orange), SW620 cells; type: cell-based; settings: combination of Compound I-7 (4 μM) with paclitaxel (2 nM), FBS+ media, 24 hours
From the text: as §1, §2

SW620 cells [2] = assay: FACS cell cycle distribution by DNA content (propidium iodide), SW620 cells in FBS- media; type: cell-based; settings: 24 hours in FBS- media, AZ191 2.5, 5, 10 μM, Compound I-7 1.25, 2.5, 5 μM
Experimental: as §2, with “[…] […]” for “For Acridine Orange (AO) staining, fixed cells were washed once with ice-cold PBS, re-suspended in 100 μL PBS, followed by addition of 200 μL of permeabilizing solution and 600 μL AO staining solution. The measurements were performed with Guava easyCyte HT flow cytometer (EMD Millipore) using the blue laser for excitation at 488 nm, monitoring emission of the AO-DNA complex at 526 nm and AO-RNA complex at 650 nm.”
The SW620 cells were cultured and treated as described in Example 1. For propidium iodide (PI) staining, manufacturer's protocol supplied with the Guava Cell Cycle Reagent for Flow Cytometry (EMD Millipore) was followed. The measurements were performed with Guava PCA-96 flow cytometer (EMD Millipore) using the green laser for excitation at 535 nm and monitoring emission at 617 nm.
The SW620 cells were cultured, treated, and analyzed as described in Examples 1. […]

quiescent cancer cells = settings: in vitro; reported by Ewton et al. 2011; cited from earlier work
[3] = combination of Compound I-7 (4 μM) with vincristine (1.1 nM)
[4] = combination of Compound I-7 (4 μM) with vinorelbine (8.1 nM)
[5] = combination of Compound I-7 with paclitaxel

| Compound | cytotoxicity (fraction of apoptotic cells, sub-G0 population) (DMS273 cells; [3]) | fraction of cells in G0 (DMS273 cells; [3]) | cytotoxicity (fraction of apoptotic cells, sub-G0 population) (DMS273 cells; [4]) | fraction of cells in G0 (DMS273 cells; [4]) | cytotoxicity (fraction of apoptotic cells, sub-G0 population) (DMS273 cells; [5]) | fraction of cells in G0 (DMS273 cells; [5]) | cytotoxicity (fraction of apoptotic cells, sub-G0 population) (SW620 cells [1]) | fraction of cells in G0 (SW620 cells [1]) | fraction of cells in quiescent state (G0), based on fraction of cells in G0+G1 phase (SW620 cells [2]) | effectiveness against quiescent cancer cells (quiescent cancer cells) |
| --- | --- | --- | --- | --- | --- | --- | --- | --- | --- | --- |
| CCOC(=N)c1nc2ccc3ncnc(Nc4cc(F)c(F)cc4Cl)c3c2s1 [Compound I-7] | significantly higher than that of vincristine alone | significant reduction of the fraction of cells in G0 | significantly higher than that of vinorelbine alone | significant reduction of the fraction of cells in G0 | significantly higher than that of paclitaxel alone | significant reduction of the fraction of cells in G0 | significantly higher than that of paclitaxel alone | significant reduction of the fraction of cells in G0 | significant decrease in fraction of cells in quiescent state (G0) | – |
| COc1ncc2cc(C(=O)Nc3cc(C(=O)NCc4cccc(Cl)c4)ccc3Cl)c(=O)[nH]c2n1 [TC-S 7004] | – | – | – | – | – | – | – | – | – | effective against quiescent cancer cells in vitro |

Source: US10314843B2, “Combinations for the treatment of neoplasms using quiescent cell targeting and inhibitors of mitosis” (Felicitex Therapeutics, Inc., priority 2016, dated 2019)
